The values below are quoted from earlier work in US20130267562A1, “ACTIVE ENANTIOMER OF DODECYL 2-(N,N-DIMETHYLAMINO)-PROPIONATE” (NEXMED HOLDINGS, INC, priority 2010, published 2013).

SMILES strings stand for the structures.

In the case of `CCCCCCCCCCCCOC(=O)C(C)N(C)C` (racemic) [Racemic DDAIP, dodecyl 2-methyl-2-(N,N-dimethylamino)acetate], the “miscibility with organic solvents” value (most organic solvents) was “miscible with most organic solvents”. Moreover, the solubility in water entry (water) was “not soluble”.
